Patent US20130035326A1 (AMBIT BIOSCIENCES CORPORATION, priority 2009, published 2013)

Assays:
KIT kinase = biological target: T1, KIT kinase (Homo sapiens, UniProt P10721); assay: Competition binding assay, KIT Kd
T1 construct: made in house; host or cells: T7 phage display or HEK-293 cells
Procedure, shortened: (§1)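 In this bead-based competition format, test compound (eleven concentrations, threefold steps) was incubated with kinase and immobilized affinity ligand for 1 hour at room temperature. Kinase retained on beads was released with non-biotinylated ligand and measured by quantitative PCR to give Kd.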

FLT3 kinase = biological target: T2, FLT3 kinase (Homo sapiens, UniProt P36888); assay: Competition binding assay, FLT3 Kd
T2 construct: made in house; host or cells: T7 phage display or HEK-293 cells
T2 sequence (P36888 27-993): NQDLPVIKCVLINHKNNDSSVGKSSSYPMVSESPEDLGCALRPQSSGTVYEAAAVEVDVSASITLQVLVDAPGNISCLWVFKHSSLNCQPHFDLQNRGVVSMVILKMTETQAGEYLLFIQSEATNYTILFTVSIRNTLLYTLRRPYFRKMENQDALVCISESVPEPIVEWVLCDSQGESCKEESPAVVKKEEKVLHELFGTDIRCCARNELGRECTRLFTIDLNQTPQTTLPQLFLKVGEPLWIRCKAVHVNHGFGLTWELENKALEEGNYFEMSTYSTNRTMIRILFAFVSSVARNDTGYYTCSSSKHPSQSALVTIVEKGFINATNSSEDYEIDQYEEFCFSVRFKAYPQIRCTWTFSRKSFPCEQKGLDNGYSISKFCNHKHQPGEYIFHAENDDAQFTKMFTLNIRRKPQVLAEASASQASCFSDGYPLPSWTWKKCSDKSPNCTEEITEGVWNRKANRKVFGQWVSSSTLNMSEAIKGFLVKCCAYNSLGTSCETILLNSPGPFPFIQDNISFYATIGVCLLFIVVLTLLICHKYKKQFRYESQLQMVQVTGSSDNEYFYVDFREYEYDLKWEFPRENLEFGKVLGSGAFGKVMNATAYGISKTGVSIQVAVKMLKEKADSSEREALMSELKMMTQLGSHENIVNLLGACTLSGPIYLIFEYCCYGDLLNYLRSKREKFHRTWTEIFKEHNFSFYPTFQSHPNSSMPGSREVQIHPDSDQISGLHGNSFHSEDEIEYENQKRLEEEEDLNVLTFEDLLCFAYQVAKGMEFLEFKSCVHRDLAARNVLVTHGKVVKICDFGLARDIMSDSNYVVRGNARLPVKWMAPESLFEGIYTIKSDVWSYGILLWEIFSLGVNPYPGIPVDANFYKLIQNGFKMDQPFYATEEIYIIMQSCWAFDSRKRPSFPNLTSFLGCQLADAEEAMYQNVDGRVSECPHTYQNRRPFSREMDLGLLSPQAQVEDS
Procedure, shortened: as §1

[1] = biological target: kinase panel containing either 359 or 386 distinct kinases; assay: Selectivity score S10 from competition binding against a panel of kinases; conditions: compounds at 10 μM; panel of 386 distinct kinases
Procedure, shortened: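 Compounds were tested at 10 μM in competition binding against T7 phage-fused or HEK-293-expressed DNA-tagged kinases with immobilized affinity ligands, 1 h at room temperature. Bound kinase was quantified by qPCR as percent of DMSO control; S10 is the fraction of distinct kinases (mutants excluded) with POC below 10.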

MV4-11 cells = assay: MV4-11 cell proliferation assay (Alamar Blue); type: cell-based; conditions: Homo sapiens, MV4-11, 72 h, 3 days incubation
Procedure, shortened: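 Flt3-ITD MV4-11 cells were serum-starved overnight in Iscove's with 0.5% FBS, then given compound at 9 half-log concentrations (0.5% DMSO) for 3 days at 37° C. Alamar Blue reduction was read after 3 h by fluorescence (560/590 nm). IC50 is the mean of duplicates versus negative control.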

CSF-1R kinase = biological target: T3, CSF-1R kinase (Homo sapiens, UniProt P07333); assay: Competition binding assay, CSF-1R Kd
T3 construct: made in house; host or cells: T7 phage display or HEK-293 cells
T3 sequence (P07333 20-972): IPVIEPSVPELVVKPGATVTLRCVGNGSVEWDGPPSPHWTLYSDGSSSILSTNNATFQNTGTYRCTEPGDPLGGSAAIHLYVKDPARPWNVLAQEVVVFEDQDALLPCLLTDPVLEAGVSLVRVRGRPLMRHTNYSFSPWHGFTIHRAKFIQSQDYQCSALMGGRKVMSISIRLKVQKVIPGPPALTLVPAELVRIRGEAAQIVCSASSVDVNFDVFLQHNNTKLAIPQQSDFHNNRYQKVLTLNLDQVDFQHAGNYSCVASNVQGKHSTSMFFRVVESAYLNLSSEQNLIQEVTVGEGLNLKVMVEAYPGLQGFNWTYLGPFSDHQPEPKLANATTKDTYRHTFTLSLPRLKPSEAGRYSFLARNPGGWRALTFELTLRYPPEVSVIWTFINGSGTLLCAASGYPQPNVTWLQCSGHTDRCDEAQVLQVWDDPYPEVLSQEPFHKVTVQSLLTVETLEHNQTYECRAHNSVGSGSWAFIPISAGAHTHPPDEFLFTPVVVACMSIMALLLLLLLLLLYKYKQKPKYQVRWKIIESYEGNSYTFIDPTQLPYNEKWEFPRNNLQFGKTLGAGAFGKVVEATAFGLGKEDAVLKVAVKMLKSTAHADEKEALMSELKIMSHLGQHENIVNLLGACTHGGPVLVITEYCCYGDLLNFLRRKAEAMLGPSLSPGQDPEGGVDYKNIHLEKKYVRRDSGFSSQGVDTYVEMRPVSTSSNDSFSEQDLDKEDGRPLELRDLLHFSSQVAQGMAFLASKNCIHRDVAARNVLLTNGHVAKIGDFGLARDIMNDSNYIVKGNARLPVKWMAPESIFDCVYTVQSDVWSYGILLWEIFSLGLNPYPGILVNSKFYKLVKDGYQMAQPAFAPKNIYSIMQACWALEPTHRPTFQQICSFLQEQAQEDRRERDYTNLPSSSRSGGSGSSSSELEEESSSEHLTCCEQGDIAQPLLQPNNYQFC
Procedure, shortened: as §1

T1 sequence (P10721 26-976): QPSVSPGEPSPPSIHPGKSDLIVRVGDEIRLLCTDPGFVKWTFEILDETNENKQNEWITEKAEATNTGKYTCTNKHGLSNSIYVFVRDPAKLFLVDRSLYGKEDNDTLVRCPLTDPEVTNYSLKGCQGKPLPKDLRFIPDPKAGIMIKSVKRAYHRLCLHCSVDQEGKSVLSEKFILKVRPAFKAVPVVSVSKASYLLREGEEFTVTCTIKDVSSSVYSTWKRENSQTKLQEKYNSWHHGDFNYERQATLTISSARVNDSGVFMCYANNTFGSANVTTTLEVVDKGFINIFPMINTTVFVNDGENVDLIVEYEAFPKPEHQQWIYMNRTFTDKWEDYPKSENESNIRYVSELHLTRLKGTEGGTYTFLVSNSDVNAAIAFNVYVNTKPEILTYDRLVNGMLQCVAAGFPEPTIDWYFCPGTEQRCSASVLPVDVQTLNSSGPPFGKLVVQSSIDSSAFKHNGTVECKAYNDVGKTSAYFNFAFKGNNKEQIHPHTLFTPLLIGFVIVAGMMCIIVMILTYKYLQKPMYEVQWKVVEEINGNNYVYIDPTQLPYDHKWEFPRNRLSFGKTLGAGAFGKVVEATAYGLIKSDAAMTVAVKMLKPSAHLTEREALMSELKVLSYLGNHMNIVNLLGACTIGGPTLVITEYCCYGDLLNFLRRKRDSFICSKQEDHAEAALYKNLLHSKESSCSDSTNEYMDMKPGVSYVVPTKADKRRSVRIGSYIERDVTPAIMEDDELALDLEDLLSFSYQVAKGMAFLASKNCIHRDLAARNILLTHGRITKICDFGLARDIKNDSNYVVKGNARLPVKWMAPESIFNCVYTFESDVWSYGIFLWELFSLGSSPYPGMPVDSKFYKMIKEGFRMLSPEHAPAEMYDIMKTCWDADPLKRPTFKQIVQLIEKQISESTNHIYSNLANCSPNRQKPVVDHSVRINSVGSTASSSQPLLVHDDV

## CC(C)(C)c1cc(NC(=O)Cc2ccc(-c3cnc4[nH]c(=O)[nH]c4c3)cc2)no1 [Example 147, N-(5-tert-butylisoxazol-3-yl)-2-(4-(2-oxo-2,3-dihydro-1H-imidazo[4,5-b]pyridin-6-yl)phenyl)acetamide]
KIT kinase
  Kd: 1 to 10 nM
FLT3 kinase
  Kd: 1 to 10 nM
[1]
  Kinase specificty: S(10)-386 panel: B (0.1<B≦0.2 nM)
MV4-11 cells
  IC50: ≤ 1 nM
CSF-1R kinase
  Kd: ≤ 10 nM

## CC(C)(C)c1cc(NC(=O)Cc2ncc(-c3ccc(N)nc3)cc2F)no1.CS(=O)(=O)O [Example 148, 6′-(2-(5-tert-butylisoxazol-3-ylamino)-2-oxoethyl)-5′-fluoro-3,3′-bipyridin-6-aminium methanesulfonate]
KIT kinase
  Kd: ≤ 1 nM
FLT3 kinase
  Kd: ≤ 1 nM
[1]
  Kinase specificty: S(10)-386 panel: A (A≦0.1)
MV4-11 cells
  IC50: 1 to 10 nM
CSF-1R kinase
  Kd: ≤ 10 nM

## Nc1ccc(-c2ccc(CC(=O)Nc3cc(C4(C(F)F)CC4)on3)cc2)cn1 [Example 149, 2-(4-(6-aminopyridin-3-yl)phenyl)-N-(5-(1-(difluoromethyl)cyclopropyl)isoxazol-3-yl)acetamide]
KIT kinase
  Kd: ≤ 1 nM
FLT3 kinase
  Kd: ≤ 1 nM
[1]
  Kinase specificty: S(10)-386 panel: B (0.1<B≦0.2 nM)
MV4-11 cells
  IC50: 1 to 10 nM
CSF-1R kinase
  Kd: ≤ 10 nM

## CC(C)(C)c1cc(NC(=O)Cc2ccc(-c3cnc(N)cc3Cl)cc2)no1.CS(=O)(=O)O [Example 150, 5-(4-(2-(5-tert-butylisoxazol-3-ylamino)-2-oxoethyl)phenyl)-4-chloropyridin-2-aminium methanesulfonate]
KIT kinase
  Kd: 1 to 10 nM
FLT3 kinase
  Kd: ≤ 1 nM
[1]
  Kinase specificty: S(10)-386 panel: A (A≦0.1)
MV4-11 cells
  IC50: 1 to 10 nM
CSF-1R kinase
  Kd: ≤ 10 nM

## CC(C)(C)c1cc(NC(=O)Cc2ccc(-c3cnc(N)cc3F)cc2)no1.CS(=O)(=O)O [Example 151, 5-(4-(2-(5-tert-butylisoxazol-3-ylamino)-2-oxoethyl)phenyl)-4-fluoropyridin-2-aminium methanesulfonate]
KIT kinase
  Kd: 10 to 100 nM
FLT3 kinase
  Kd: ≤ 1 nM
[1]
  Kinase specificty: S(10)-386 panel: B (0.1<B≦0.2 nM)
MV4-11 cells
  IC50: 1 to 10 nM
CSF-1R kinase
  Kd: ≤ 10 nM

## CC(C)(C)c1cc(NC(=O)Cc2ccc(-c3cc(F)c(N)nc3F)cc2)no1.CS(=O)(=O)O [Example 152, 5-(4-(2-(5-tert-butylisoxazol-3-ylamino)-2-oxoethyl)phenyl)-3,6-difluoropyridin-2-aminium methanesulfonate]
KIT kinase
  Kd: 1 to 10 nM
FLT3 kinase
  Kd: ≤ 1 nM
[1]
  Kinase specificty: S(10)-386 panel: A (A≦0.1)
MV4-11 cells
  IC50: ≤ 1 nM
CSF-1R kinase
  Kd: ≤ 10 nM

## CC(F)(F)C1(c2cc(NC(=O)Cc3ccc(-c4ccc(N)nc4)cc3)no2)CC1 [Example 153]
KIT kinase
  Kd: 1 to 10 nM
FLT3 kinase
  Kd: ≤ 1 nM
[1]
  Kinase specificty: S(10)-386 panel: B (0.1<B≦0.2 nM)
MV4-11 cells
  IC50: ≤ 1 nM
CSF-1R kinase
  Kd: ≤ 10 nM

## CC(C)(C)c1cc(NC(=O)Cc2ccc(-c3ccc(N)nc3)nc2)no1 [Example 155]
KIT kinase
  Kd: ≤ 1 nM
FLT3 kinase
  Kd: ≤ 1 nM
[1]
  Kinase specificty: S(10)-386 panel: A (A≦0.1)
MV4-11 cells
  IC50: 10 to 100 nM
CSF-1R kinase
  Kd: 100 to 500 nM

## CC(C)(C)c1cc(NC(=O)Cc2ccc(-c3cnc(N)cc3C(F)(F)F)cc2)no1 [Example 156]
KIT kinase
  Kd: 1 to 10 nM
FLT3 kinase
  Kd: ≤ 1 nM
[1]
  Kinase specificty: S(10)-386 panel: A (A≦0.1)
MV4-11 cells
  IC50: 10 to 100 nM
CSF-1R kinase
  Kd: 10 to 100 nM

## COc1cc(N)ncc1-c1ccc(CC(=O)Nc2cc(C(C)(C)C)on2)cc1 [Example 157]
KIT kinase
  Kd: 1 to 10 nM
FLT3 kinase
  Kd: ≤ 1 nM
[1]
  Kinase specificty: S(10)-386 panel: A (A≦0.1)
MV4-11 cells
  IC50: 1 to 10 nM
CSF-1R kinase
  Kd: 10 to 100 nM

## Cc1cc(-c2ccc(CC(=O)Nc3cc(C4(C)CC4)on3)cc2)cnc1N [Example 158]
KIT kinase
  Kd: ≤ 1 nM
FLT3 kinase
  Kd: ≤ 1 nM
[1]
  Kinase specificty: S(10)-386 panel: A (A≦0.1)
MV4-11 cells
  IC50: 1 to 10 nM
CSF-1R kinase
  Kd: ≤ 10 nM

## CC(F)(F)C1(c2cc(NC(=O)Cc3ccc(-c4ccc(N)nc4F)cc3)no2)CC1 [Example 159]
KIT kinase
  Kd: 1 to 10 nM
FLT3 kinase
  Kd: 1 to 10 nM
[1]
  Kinase specificty: S(10)-386 panel: A (A≦0.1)
MV4-11 cells
  IC50: ≤ 1 nM
CSF-1R kinase
  Kd: ≤ 10 nM

## CC1(c2cc(NC(=O)Cc3ccc(-c4cnc(N)c(Cl)c4)cc3)no2)CC1 [Example 160]
KIT kinase
  Kd: ≤ 1 nM
FLT3 kinase
  Kd: ≤ 1 nM
[1]
  Kinase specificty: S(10)-386 panel: B (0.1<B≦0.2 nM)
MV4-11 cells
  IC50: ≤ 1 nM
CSF-1R kinase
  Kd: ≤ 10 nM

## CC1(c2cc(NC(=O)Cc3ccc(-c4cnc(N)c(C(F)(F)F)c4)cc3)no2)CC1 [Example 161]
KIT kinase
  Kd: 1 to 10 nM
FLT3 kinase
  Kd: ≤ 1 nM
[1]
  Kinase specificty: S(10)-386 panel: B (0.1<B≦0.2 nM)
MV4-11 cells
  IC50: ≤ 1 nM
CSF-1R kinase
  Kd: ≤ 10 nM

## Cc1nc(N)ccc1-c1ccc(CC(=O)Nc2cc(C3(C)CC3)on2)cc1 [Example 162]
KIT kinase
  Kd: ≤ 1 nM
FLT3 kinase
  Kd: ≤ 1 nM
[1]
  Kinase specificty: S(10)-386 panel: A (A≦0.1)
MV4-11 cells
  IC50: 10 to 100 nM
CSF-1R kinase
  Kd: ≤ 10 nM

## CC(C)(C)c1cc(NC(=O)Cc2ccc(-c3cnc(N)c(C(F)F)c3)cc2)no1 [Example 163]
KIT kinase
  Kd: 1 to 10 nM
FLT3 kinase
  Kd: ≤ 1 nM
[1]
  Kinase specificty: S(10)-386 panel: B (0.1<B≦0.2 nM)
MV4-11 cells
  IC50: ≤ 1 nM
CSF-1R kinase
  Kd: ≤ 10 nM

## COc1cc(-c2ccc(CC(=O)Nc3cc(C4(C)CC4)on3)cc2)cnc1N [Example 164]
KIT kinase
  Kd: ≤ 1 nM
FLT3 kinase
  Kd: ≤ 1 nM
[1]
  Kinase specificty: S(10)-386 panel: B (0.1<B≦0.2 nM)
MV4-11 cells
  IC50: 1 to 10 nM
CSF-1R kinase
  Kd: ≤ 10 nM

## Cc1nc(N)cnc1-c1ccc(CC(=O)Nc2cc(C(C)(C)C)on2)cc1 [Example 165]
KIT kinase
  Kd: 1 to 10 nM
FLT3 kinase
  Kd: ≤ 1 nM
[1]
  Kinase specificty: S(10)-386 panel: A (A≦0.1)
MV4-11 cells
  IC50: 10 to 100 nM
CSF-1R kinase
  Kd: 10 to 100 nM

## CC(C)(C)c1cc(NC(=O)Cc2ccc(-c3ccc(N)nc3C#N)cc2)no1 [Example 166]
KIT kinase
  Kd: 1 to 10 nM
FLT3 kinase
  Kd: ≤ 1 nM
[1]
  Kinase specificty: S(10)-386 panel: A (A≦0.1)
MV4-11 cells
  IC50: 10 to 100 nM
CSF-1R kinase
  Kd: 10 to 100 nM

## Nc1ccc(-c2ccc(CC(=O)Nc3cc(C4(C(F)(F)F)CCC4)on3)cc2)c(F)n1 [Example 167]
KIT kinase
  Kd: 1 to 10 nM
FLT3 kinase
  Kd: ≤ 1 nM
[1]
  Kinase specificty: S(10)-386 panel: A (A≦0.1)
MV4-11 cells
  IC50: ≤ 1 nM
CSF-1R kinase
  Kd: ≤ 10 nM
